The values that follow are results of earlier work, collected in US20070110808A1, “Extended release osmo-microsealed formulation” (ALEMBIC LIMITED, priority 2003, published 2007).

The structures appear in SMILES notation.

For this data set the following is noted: compressed tablets, 75 to 350 mg/day in divided doses two or three times a day.

Regarding `COc1ccc(C(CN(C)C)C2(O)CCCCC2)cc1.Cl` (centres unmarked) [Venlafaxine Hydrochloride, 1-[2-(dimethylamino)-1-(4-methoxyphenyl)ethyl]cyclohexanol Hydrochloride], the patients experiencing nausea entry is “about forty five” and the “patients in whom vomiting occurs” value is “about seventeen”.
